Source: PubChem BioAssay (NCI)
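Cultured in 96-well plates, cells were exposed to test compound for 48 hours across five concentrations. The concentration for 50% growth inhibition is given as GI50. TGI: concentration producing complete growth inhibition.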

Experiments:
Assay in all cases: DTP human tumour cell line panel, 48 h
SK-MEL-28 melanoma = tested on: SK-MEL-28 melanoma
CAKI-1 renal = tested on: CAKI-1 renal
EKVX NSCLC = tested on: EKVX NSCLC
SF-539 CNS = tested on: SF-539 CNS
SR leukemia = tested on: SR leukemia
HCC-2998 colon = tested on: HCC-2998 colon
OVCAR-8 ovarian = tested on: OVCAR-8 ovarian
MDA-MB-435 = tested on: MDA-MB-435
UACC-257 melanoma = tested on: UACC-257 melanoma
NCI-H460 lung = tested on: NCI-H460 lung

With Cc1cc(S(=O)(=O)Nc2nnc3cc(C(F)(F)F)cc(C)n23)c(S)cc1Cl the TGI (SK-MEL-28 melanoma) was greater than 100 µM, the TGI (CAKI-1 renal) was greater than 100 µM and the TGI (EKVX NSCLC) was greater than 100 µM. The TGI (SF-539 CNS) was greater than 96.6 µM, the TGI (SR leukemia) was greater than 100 µM and the TGI (HCC-2998 colon) was greater than 70.1 µM. For the same molecule, the TGI (OVCAR-8 ovarian) was greater than 100 µM, the TGI (MDA-MB-435) was greater than 100 µM and the TGI (UACC-257 melanoma) was greater than 100 µM. The TGI (NCI-H460 lung) was 42.5 µM.

O=c1[nH]nc(Cc2ccc(Cl)cc2)n1O showed a TGI (SK-MEL-28 melanoma) greater than 100 µM, a TGI (CAKI-1 renal) greater than 100 µM and a TGI (EKVX NSCLC) greater than 100 µM. For the same molecule, the TGI (SF-539 CNS) was greater than 100 µM, the TGI (SR leukemia) was greater than 100 µM and the TGI (HCC-2998 colon) was greater than 100 µM. The TGI (OVCAR-8 ovarian) was greater than 100 µM, the TGI (MDA-MB-435) was greater than 100 µM and the TGI (UACC-257 melanoma) was greater than 100 µM. It also gave a TGI (NCI-H460 lung) greater than 100 µM.

In the case of CN1C2CC(=O)CC1[C@@H]1OC(c3ccccc3)O[C@H]21 (stereo not given in full), the TGI (SK-MEL-28 melanoma) is reported as greater than 100 µM, the TGI (CAKI-1 renal) is reported as greater than 100 µM and the TGI (EKVX NSCLC) is reported as greater than 100 µM. For the same molecule, the TGI (SF-539 CNS) was greater than 100 µM, the TGI (SR leukemia) was greater than 100 µM and the TGI (HCC-2998 colon) was greater than 100 µM. The TGI (OVCAR-8 ovarian) was greater than 100 µM, the TGI (MDA-MB-435) was greater than 100 µM and the TGI (UACC-257 melanoma) was greater than 100 µM. The TGI (NCI-H460 lung) was greater than 100 µM.

For O=C1C=CC(=O)c2ncccc21, the TGI (SK-MEL-28 melanoma) was 11.2 µM, the TGI (CAKI-1 renal) was 4.02 µM and the TGI (EKVX NSCLC) was 9.86 µM. For the same molecule, the TGI (SF-539 CNS) was 22.6 µM, the TGI (SR leukemia) was 5.88 µM and the TGI (HCC-2998 colon) was 21 µM. It also gave a TGI (OVCAR-8 ovarian) of 26.5 µM, a TGI (MDA-MB-435) of 18.5 µM and a TGI (UACC-257 melanoma) of 11.2 µM. The TGI (NCI-H460 lung) was 17.5 µM.

Work on O=C1NC(N/N=C\c2ccccc2)=N/C1=C/c1ccc(Cl)cc1 yielded a TGI (SK-MEL-28 melanoma) greater than 100 µM, a TGI (CAKI-1 renal) greater than 100 µM and a TGI (EKVX NSCLC) of 67.4 µM. It also gave a TGI (SF-539 CNS) of 53.8 µM, a TGI (SR leukemia) of 40.1 µM and a TGI (HCC-2998 colon) of 36.9 µM. The TGI (OVCAR-8 ovarian) was 49.6 µM, the TGI (MDA-MB-435) was greater than 100 µM and the TGI (UACC-257 melanoma) was greater than 100 µM. The TGI (NCI-H460 lung) was 53.5 µM.

Work on CCOP(=O)(OCC)C(Nc1ccc(F)cc1)c1cccc([N+](=O)[O-])c1 (stereo not given) yielded a TGI (SK-MEL-28 melanoma) greater than 100 µM, a TGI (CAKI-1 renal) greater than 100 µM and a TGI (EKVX NSCLC) greater than 100 µM. It also gave a TGI (SF-539 CNS) greater than 100 µM, a TGI (SR leukemia) greater than 100 µM and a TGI (HCC-2998 colon) greater than 100 µM. It also gave a TGI (OVCAR-8 ovarian) greater than 100 µM, a TGI (MDA-MB-435) greater than 100 µM and a TGI (UACC-257 melanoma) greater than 100 µM. It also gave a TGI (NCI-H460 lung) greater than 100 µM.

Work on Cc1ccc(O)c(C2=NNC(c3cccc(Br)c3)C2)c1 (stereo not given) yielded a TGI (CAKI-1 renal) greater than 100 µM, a TGI (EKVX NSCLC) greater than 100 µM and a TGI (SF-539 CNS) greater than 100 µM. For the same molecule, the TGI (SR leukemia) was greater than 100 µM, the TGI (HCC-2998 colon) was greater than 100 µM and the TGI (OVCAR-8 ovarian) was greater than 100 µM. It also gave a TGI (MDA-MB-435) of 46.8 µM, a TGI (UACC-257 melanoma) greater than 100 µM and a TGI (NCI-H460 lung) greater than 100 µM.

N#CCc1nc(C#N)c(N)o1 gave a TGI (SK-MEL-28 melanoma) greater than 100 µM, a TGI (CAKI-1 renal) greater than 100 µM and a GI50 (EKVX NSCLC) greater than 100 µM. For the same molecule, the TGI (EKVX NSCLC) was greater than 100 µM, the TGI (SF-539 CNS) was greater than 100 µM and the TGI (SR leukemia) was greater than 100 µM. For the same molecule, the TGI (HCC-2998 colon) was greater than 100 µM, the TGI (OVCAR-8 ovarian) was greater than 100 µM and the TGI (MDA-MB-435) was greater than 100 µM. For the same molecule, the TGI (UACC-257 melanoma) was greater than 100 µM and the TGI (NCI-H460 lung) was greater than 100 µM.
